Measurements as given in article PMC9863607, “Combined Use of Antimicrobial Peptides with Antiseptics against Multidrug-Resistant Bacteria: Pros and Cons” (Pharmaceutics, 2023).
≈ marks a conversion by molar mass, not a printed value. Read-outs that look alike come from different tables or passages of the source. Peptide text beside a SMILES is read from it.

What was measured:
[1] = tested on: K. pneumoniae ESBL 344/17; assay: microbe, parasite or virus in culture; format: cell-based, Klebsiella pneumoniae
Protocol: (§1) In this regard the test plates were preincubated for 1 h at 37 °C with 0.1% bovine serum albumin (BSA) in distilled water before use. Bacteria were grown overnight at 37 °C with shaking in 2.1% Müller–Hinton broth (MHB), and then a small aliquot was transferred into the fresh portion of the same medium for another 2–3 h on the day of the experiment to provide us with the log phase bacterial suspension. Concentration of bacterial cells in suspension was evaluated based on absorbance at 620 nm and diluted down to 1 × 10^6 CFU/mL with MHB. Equal volumes of the prepared bacterial suspension in MHB and two-fold serial dilutions of the antimicrobials in 10 mM sodium phosphate (Na-P) buffer (pH 7.4) with 0.1% BSA were mixed and incubated overnight at 37 °C. The lowest concentration where no bacterial growth was observed the next day under visual examination was considered the minimal inhibitory concentration. The test was repeated at least three times, and the final MIC value was established as a median result. Each experiment was conducted in triplicates. Terasaki microplates (10 µL end volume, V-shaped bottom; Sarstedt, Nümbrecht, Germany) were used.

P. aeruginosa MDR 522/17 = assay: Crystal violet assay of biofilm formation; format: cell-based, Pseudomonas aeruginosa; details: median of 3 independent experiments; for Minimal FECI, AMP + CAPB, biofilm formation: combination with cocamidopropyl betaine; for Minimal FECI, AMP + CAPB, biofilm formation / Minimal FECI, AMP + DXD, biofilm formation / Minimal FECI, AMP + ETA, biofilm formation / Minimal FECI, AMP + PVG, biofilm formation / Minimal FECI, AMP + PTS, biofilm formation: sub-microbicidal concentrations; for Minimal FECI, AMP + DXD, biofilm formation: combination with dioxydin; for Minimal FECI, AMP + ETA, biofilm formation: combination with etidronic acid; for Minimal FECI, AMP + PVG, biofilm formation: combination with poviargolum; for Minimal FECI, AMP + PTS, biofilm formation: combination with prontosan; for MECBF partially inhibiting bacterial biofilms: minimal concentration with significant decrease vs intact control (Mann–Whitney, p < 0.05), 24 h, 37 °C, MHB
Protocol: The impact of the tested antimicrobials and their combinations on the formation of biofilms was quantitated as per the crystal violet assay protocol published by Merritt et al.. Testing was performed in 96-well immunological plates with U-shaped bottoms. […] Experimental samples were quadruplicated, and control without antimicrobials was octuplicated.
Then, the liquid content of the test plates was discarded, and the plates were gently washed in still water from residual traces of unattached planktonic bacteria. Each well was supplied with 125 μL 0.1% aqueous solution of crystal violet dye for 10 min at room temperature to stain biofilm components left attached to the surface. After staining, the plates were washed with clear water once more to remove excessive dye and left to air-dry. To quantify the amount of the bound dye corresponding to the thickness of the formed biofilm, it was redissolved in 30% acetic acid, 200 μL of which was introduced into each well. After 15 min at room temperature, the content of the wells was mixed by repetitive pipetting to ensure complete dye extraction, and 125 μL of each sample was transferred well-by-well into 96-well clear flat-bottom plates for spectrophotometric examination. OD was measured at 580 nm. Final results were calculated as medians based on three independent experiments.
Analyzing the combined action of AMPs and antiseptics (AS) in sub-microbicidal concentrations toward biofilms, we adopted the same approach based on the calculation of fractional indices as the one we used while testing antimicrobial activity on planktonic bacteria. For combinations, the series of concentrations from [MECBF(AMP) + MECBF(AS)], [½MECBF(AMP) + ½MECBF(AS)] and down to [1/32 × MECBF(AMP) + 1/32 × MECBF(AS)] was analyzed. […] The minimal FECI > 4 was interpreted as antagonism, FECI ≤ 0.5 as synergy, 0.5 < FECI ≤ 1 as additivity, and 1 < FECI ≤ 4 as independent action.

[2] = tested on: normal human dermal fibroblasts; assay: MTT test and/or direct cell count by light microscopy; details: for FECI, toxicity toward fibroblasts: assessed from the ½+½ and ¼+¼ MEC combinations
Excerpt: Potential cytotoxic effects of the test substances and their combinations toward human dermal fibroblasts were observed using a MTT dye [3-(4,5-dimethylthiazol-2-yl)-2,5-diphenyltetrazolium bromide]-based test first proposed by Mosmann. MTT basically functions on the same principle as resazurin: it is reduced in metabolically active cells to the product named formazan, which differs from MTT by its properties. While MTT is yellow, formazan is blue and water-insoluble. Normal human fibroblasts initially obtained from the Pokrovsky Stem Cell Bank (Saint Petersburg, Russia) were cultured at 37 °C and 5% CO2 in DMEM medium supplemented with 10% fetal bovine serum, glutamine, and Pen-Strep. The day before, experiment cells were detached from the culture flasks using Trypsin-Versene reagent, collected into a sterile 15 mL tube, centrifuged for 10 min at 300× g to discard the previous medium, and resuspended in serum-, glutamine-, and antibiotic-free DMEM. Cells were counted using a hemocytometer; their concentration was adjusted, and they were distributed at 10,000–15,000 cells per well in 90 µL in a 96-well sterile treated flat-bottom plate and left at 37 °C and 5% CO2 overnight to properly adhere. The following day, their well-being was visually checked using an inverted light microscope, and the wells were supplied with 10 µL of the test substances or their combinations in DMEM in 10 times the final desired concentrations. Experimental samples were made in triplicates. […] At least six repeats of each type of the control samples were made. Test plates were incubated at 37 °C and 5% CO2 overnight, and 10 µL of the 5 mg/mL MTT in PBS were introduced into each well the next morning. After another 4 h of incubation at the same conditions, formed formazan crystals were dissolved by adding 110 µL of isopropanol containing 0.04 M HCl (the latter is used to “switch” phenol red pH indicator in DMEM from red to yellow). Then, each sample was thoroughly mixed by repetitive pipetting, and formazan concentration was spectrophotometrically evaluated measuring OD at 540 nm with subtraction of the background at 690 nm.
We resorted to the direct cell count in case the MTT test was not applicable or required verification of some sort. This idea was borrowed from the crystal violet assay for determining viability of cultured cells and is based on the fact that, once dead, adherent cells detach from the surface. Since we were not aiming to analyze a large number of samples in this manner, we simply skipped the staining step of the crystal violet assay, which is also slightly difficult and brings a risk of detaching cells during washing. We proceeded with the same protocol as for the MTT test down to the step of adding MTT dye. Then, instead, we used an inverted light microscope (magnification ×500) to calculate the number of attached cells in 10 fields of view in each experimental well of interest and compared it with the count for the 100% viability control wells. The exact effect was evaluated as viable cells (%) = mean number of adhered cells in a sample / mean number of adhered cells in 100% viability control × 100%.
While analyzing toxicity toward eukaryotic cells, components were mixed in concentrations of ½ MEC (AMP) + ½ MEC (AS) (that can provide the fractional index = 1, denoting additivity, if found effective) and ¼ MEC (AMP) + ¼ MEC (AS) (that can provide the fractional index = 0.5, denoting synergy, if found effective).
Cytotoxic effects of individual substances and their combinations were also evaluated against cultured normal human dermal fibroblasts. We used MTT tests and/or light microscopy for the direct cell count.

E. coli ML-35p = assay: Broth microdilution assay (MIC, planktonic bacteria); format: cell-based, Escherichia coli; details: antiseptics and surfactants, MHB, overnight 37 °C, median of 3–4 independent experiments, prontosan as polyhexanide
Protocol: as §1

[3] = antiseptics and surfactants, MHB, overnight 37 °C, median of 3–4 independent experiments, prontosan as polyhexanide
[4] = antiseptics and surfactants, serum-free DMEM, overnight, median of 3 independent experiments, prontosan as polyhexanide, etidronic acid primarily by direct cell count

| Molecule | MIC ([1]; ESBL 344/17, 1 h) [µM] | Minimal FECI, AMP + CAPB, biofilm formation (P. aeruginosa MDR 522/17) | Minimal FECI, AMP + DXD, biofilm formation (P. aeruginosa MDR 522/17) | Minimal FECI, AMP + ETA, biofilm formation (P. aeruginosa MDR 522/17) | Minimal FECI, AMP + PVG, biofilm formation (P. aeruginosa MDR 522/17) | Minimal FECI, AMP + PTS, biofilm formation (P. aeruginosa MDR 522/17) | MECBF partially inhibiting bacterial biofilms (P. aeruginosa MDR 522/17) | MIC [1, 3] [mg/mL] | MECF [2] | MECF of cytotoxic action toward normal human dermal fibroblasts [2, 4] [µg/mL] | also measured |
| --- | --- | --- | --- | --- | --- | --- | --- | --- | --- | --- | --- |
| CC[C@H](C)[C@H](NC(=O)[C@H](CCCNC(=N)N)NC(=O)[C@@H](NC(=O)[C@@H]1CCCN1C(=O)[C@@H]1CCCN1C(=O)[C@H](CCCNC(=N)N)NC(=O)[C@H](CCCNC(=N)N)NC(=O)[C@H](Cc1ccccc1)NC(=O)[C@@H]1CCCN1C(=O)[C@H](CC(C)C)NC(=O)[C@H](CCCNC(=N)N)NC(=O)[C@H](Cc1ccccc1)NC(=O)[C@@H](N)CCCNC(=N)N)[C@@H](C)CC)C(=O)N[C@@H](Cc1c[nH]cn1)C(=O)N1CCC[C@H]1C(=O)N1CCC[C@H]1C(=O)N1CCC[C@H]1C(=O)N[C@@H](Cc1ccccc1)C(=O)N[C@@H](Cc1ccc(O)cc1)C(=O)N1CCC[C@H]1C(=O)N1CCC[C@H]1C(=O)N[C@@H](Cc1ccccc1)C(=O)N[C@@H](CCCNC(=N)N)C(=O)N[C@@H](CCCNC(=N)N)C(=O)N[C@@H](Cc1ccccc1)C(=O)N[C@@H](CC(C)C)C(=O)O [ChBac3.4] (H-RFRLPFRRPPIRIHPPPFYPPFRRFL-OH; N-terminus assumed) | 3.1 | 0.5 | 1.12 | 2 | 1 | 0.12 | 1/64 |  |  |  | MECF of cytotoxic action toward normal human dermal fibroblasts [2]: 40 µM |
| [O-][n+]1c(CO)c(CO)[n+]([O-])c2ccccc21 [Dioxydin] |  |  |  |  |  |  | 1/16 | 0.0156 | 0.5 mg/mL | 500 |  |
| CC(O)(P(=O)(O)O)P(=O)(O)O [Etidronic acid] |  |  |  |  |  |  | 1/32 |  | less than 2.5 mg/mL | <2500 | MIC ([1]; Klebsiella pneumoniae, ESBL344/17, antiseptics and surfactants, MHB, overnight 37 °C, median of 3–4 independent experiments, prontosan as polyhexanide, read-out: MIC): 50 mg/mL; MIC (E. coli ML-35p; Escherichia coli, ML35P, read-out: MIC): 50 mg/mL (≈ 243 mM); Cytotoxic effect toward human dermal fibroblasts ([2]; at 2.5 mg/mL): higher than 50% |
| CC(C)C[C@H](NC(=O)[C@H](CCCNC(=N)N)NC(=O)CNC(=O)CNC(=O)[C@@H](N)CCCNC(=N)N)C(=O)N[C@H]1CSSC[C@@H](C(=O)N[C@H](C(=O)NCC(=O)N[C@@H](CCCNC(=N)N)C(N)=O)C(C)C)NC(=O)[C@H](C(C)C)NC(=O)[C@@H]2CSSC[C@H](NC(=O)[C@H](Cc3ccc(O)cc3)NC1=O)C(=O)N[C@@H](CCCNC(=N)N)C(=O)N[C@@H](CCCNC(=N)N)C(=O)N[C@@H](CCCNC(=N)N)C(=O)N[C@@H](Cc1ccccc1)C(=O)N2 [PG-1, protegrin 1] | 3.1 | 0.12 | 1 | 2 | 0.25 | 0.12 | 1/64 |  |  |  | FECI, toxicity toward fibroblasts ([2]; B = cocamidopropyl betaine): 1.0; Toxicity of (¼ MEC A + ¼ MEC B) toward human dermal fibroblasts ([2]; B = cocamidopropyl betaine, experiment 1 of 3 (1st symbol)): +; Toxicity of (¼ MEC A + ¼ MEC B) toward human dermal fibroblasts ([2]; B = cocamidopropyl betaine, experiment 2 of 3 (2nd symbol)): −; Toxicity of (¼ MEC A + ¼ MEC B) toward human dermal fibroblasts ([2]; B = cocamidopropyl betaine, experiment 3 of 3 (3rd symbol)): −; Toxicity of (¼ MEC A + ¼ MEC B) toward human dermal fibroblasts ([2]; B = cocamidopropyl betaine, overall result of 3 independent experiments (square brackets)): −; FECI, toxicity toward fibroblasts ([2]; B = dioxydin): >1.0; FECI, toxicity toward fibroblasts ([2]; B = poviargolum): 1.0; Toxicity of (¼ MEC A + ¼ MEC B) toward human dermal fibroblasts ([2]; B = poviargolum, experiment 1 of 3 (1st symbol)): +; Toxicity of (¼ MEC A + ¼ MEC B) toward human dermal fibroblasts ([2]; B = poviargolum, experiment 2 of 3 (2nd symbol)): −; Toxicity of (¼ MEC A + ¼ MEC B) toward human dermal fibroblasts ([2]; B = poviargolum, experiment 3 of 3 (3rd symbol)): −; Toxicity of (¼ MEC A + ¼ MEC B) toward human dermal fibroblasts ([2]; B = poviargolum, overall result of 3 independent experiments (square brackets)): −; FECI, toxicity toward fibroblasts ([2]; B = prontosan): 1.0; Magnitude of toxic effect toward human dermal fibroblasts ([2]; at 20 μM): higher than 50% |
| Cocamidopropyl betaine |  |  |  |  |  |  | 1/512 | 0.1562 |  | 12.5 | MIC (E. coli ML-35p): >50,000 µg/mL |
